From a melting point compilation (Tetko et al.; mined from patent text by program, amines drawn as free bases though some values may be those of a salt)

`CC(C)c1cccc(C(C)C)c1NC(=O)CN1C(=O)N(c2ccccc2)C2(CCCC2)C1=O` gave a melting point of 275 to 277 °C. With `COc1ccc(OCCCCBr)c(C2(SC)Sc3ccccc3N(C)C2=O)c1` (stereo not drawn) the melting point was 102 to 103 °C. For `COc1cc(OC)c(C(=O)CCCCCl)c(OC)c1`, the melting point was 53 to 55 °C. With `O=C(c1ccccc1)c1cc(C(F)(F)F)ccc1NC=C[N+](=O)[O-]` the melting point was 196 to 198 °C. `COc1cc(OCCN2CCOCC2)c(C=CC(=O)c2ccc(C(N)=O)cc2)cc1-c1cccs1` gave a melting point of 183 to 184 °C. `O=C(c1cccc2nc3n(c12)CCCN3c1ccc(Cl)cc1Cl)N1CC(O)C1` showed a melting point of 257 to 258 °C. For `CC(C(=O)O)c1ccc2cc(OCc3ccc4ccccc4c3)ccc2c1` (stereo not drawn), the melting point was 216 to 218 °C. Molecule `CC(C)(C)NC(=S)Nc1cccc(SCCCC#N)n1` has a melting point of 156 to 157 °C. `COc1cn(-c2cccc(C3=CCOCC3)c2F)nc(-c2ccnn2-c2ccccc2)c1=O` gave a melting point of 138 to 141 °C. Molecule `CCCCC(=O)c1ccc(Cl)c(Cl)c1` has a melting point of 40 to 41 °C. `CCOc1ccc(-c2nc(-c3cc(C(=O)O)c(O)cc3O)cs2)cc1OCC` showed a melting point of 233 to 234 °C. In the case of `CN1CCN(c2ccc(Nc3ncc4c(Br)cc(-c5ccc(S(C)(=O)=O)cc5)n4n3)cc2)CC1`, the melting point was 265 to 266 °C. Work on `COC(=O)c1cc(C(=O)N[C@@H](Cc2ccccc2)[C@H](O)CNC2(c3cccc(C(F)(F)F)c3)CC2)n2c1CN(C(=O)OC(C)(C)C)CC2` yielded a melting point of 136 °C. `COc1cccc(C(C)CC(=O)Nc2sc3c(c2C#N)CCNC3)c1` (racemic) gave a melting point of 197 to 200 °C. With `OCC(Br)c1ccccc1` (stereo not drawn) the melting point was 38 to 39 °C. For `O=C(O)c1cnc2ccc(-c3ccc(Cl)cc3)cn12`, the melting point was 206 °C. Molecule `CC(=O)Nc1c(C(=S)c2ccc(C)cc2)[nH]c2cc(Cl)ccc12` has a melting point of 187 to 188 °C. Molecule `O=c1[nH]c2cc([N+](=O)[O-])cnc2n1-c1ccccc1F` has a melting point of 234 to 236 °C. For `COC1c2ccccc2CSc2ccc(C#N)cc21` (stereo not drawn), the melting point was 117 to 118 °C. Molecule `O=C(NCC(c1ccccc1)c1ccccc1)N1CCC(C(=O)O)(c2ccccc2)CC1` has a melting point of 173 to 174 °C. In the case of `O=c1oc2ccc(-c3ccc(F)cc3F)cc2c(=O)n1-c1ccc(Cl)cc1F`, the melting point was 176 to 177 °C. `CCC[C@H]1CC[C@H](C(=O)Oc2ccc(-c3ccc(F)cc3)cc2)CC1` gave a melting point of 96 °C. `O=C(O)C(=O)c1ccc(OCCOc2cc3ccccc3cc2OCCOc2ccccc2)cc1` gave a melting point of 176 to 177 °C. Molecule `CCCOc1cccnc1C(O)c1ccc(N)cc1` (stereo not drawn) has a melting point of 156 to 157 °C. For `COc1ccc(-c2coc3ccc(-c4nnc(SCc5cccc(OC)c5)o4)cc23)cc1`, the melting point was 118 to 119 °C. `CCOC(=O)C(Cc1ccc(C(C)C)cc1)C(=O)N[C@@H](CC(C)C)C(=O)OC(C)(C)C` (stereo partly drawn) showed a melting point of 68 to 73 °C. Work on `CCn1nc(-c2nc(C#N)c(NCc3ccc(OC)cc3)nc2-c2ccccc2)ccc1=O` yielded a melting point of 166 to 168 °C. For `CCCCC(=N)NC(=O)Nc1cccc(C(F)(F)F)c1`, the melting point was 167 to 169 °C. In the case of `Cn1nc(-c2cc(S)c(Cl)cc2F)c(Cl)c1C(F)(F)F`, the melting point was 56 to 58 °C. `Cn1c(=O)c2c(I)cccc2n2cnc(-c3noc(C4CC4)n3)c12` showed a melting point of 217 to 220 °C. Work on `CON(C)C(=O)c1cccc(-c2nc3sccn3c2-c2ccnc(N[C@@H]3CCCN(S(=O)(=O)c4ccc(Cl)cc4)C3)n2)c1` yielded a melting point of 114 to 115 °C. In the case of `Nc1nsnc1NCCCOc1cccc(CN2CCCCC2)c1`, the melting point was 137 to 138 °C. `COC(=O)Cc1ccc(OCC(C)NCC(O)c2cccc(Cl)c2)c(O)c1` (stereo not drawn) showed a melting point of 68 °C. For `CSc1nc(OCC(F)(F)F)nc2sc(C)cc12`, the melting point was 97 °C. With `O=S(=O)(c1ccccc1)c1ccc(S)cc1` the melting point was 117 °C. In the case of `COC(=O)c1ccc(C=C(CBr)C(=O)OC(C)(C)C)cc1`, the melting point was 78 °C. Molecule `COc1ccc(-c2ccc(C3C(CCC(O)c4ccc(F)cc4)C(=O)N3c3ccc(F)cc3)cc2)cc1` (stereo not drawn) has a melting point of 103 °C. Molecule `O=C(NC(=O)c1c(O)cccc1F)Nc1ccc(Cl)cc1` has a melting point of 215 °C.
